Reference: doi:10.1101/2025.02.26.640120v1 (biorxiv, 2025)
Read-outs that look alike come from different tables or passages of the source.

Legend:
in vitro [1] = experiment: in vitro; set-up: species or system AtT-20; conditions: mouse, att-20 cells, AtT-20 cell viability at 25µM, % of control
in vitro [2] = conditions: mouse, att-20 cells
in vitro [3] = conditions: mouse, att-20 cells; remark: listed apart in the source
full length USP8 = molecular target: T1, full length USP8 (Homo sapiens, UniProt P40818); experiment: Ub-Rho hydrolysis, dose response; format: biochemical
T1 sequence (P40818 1-1118): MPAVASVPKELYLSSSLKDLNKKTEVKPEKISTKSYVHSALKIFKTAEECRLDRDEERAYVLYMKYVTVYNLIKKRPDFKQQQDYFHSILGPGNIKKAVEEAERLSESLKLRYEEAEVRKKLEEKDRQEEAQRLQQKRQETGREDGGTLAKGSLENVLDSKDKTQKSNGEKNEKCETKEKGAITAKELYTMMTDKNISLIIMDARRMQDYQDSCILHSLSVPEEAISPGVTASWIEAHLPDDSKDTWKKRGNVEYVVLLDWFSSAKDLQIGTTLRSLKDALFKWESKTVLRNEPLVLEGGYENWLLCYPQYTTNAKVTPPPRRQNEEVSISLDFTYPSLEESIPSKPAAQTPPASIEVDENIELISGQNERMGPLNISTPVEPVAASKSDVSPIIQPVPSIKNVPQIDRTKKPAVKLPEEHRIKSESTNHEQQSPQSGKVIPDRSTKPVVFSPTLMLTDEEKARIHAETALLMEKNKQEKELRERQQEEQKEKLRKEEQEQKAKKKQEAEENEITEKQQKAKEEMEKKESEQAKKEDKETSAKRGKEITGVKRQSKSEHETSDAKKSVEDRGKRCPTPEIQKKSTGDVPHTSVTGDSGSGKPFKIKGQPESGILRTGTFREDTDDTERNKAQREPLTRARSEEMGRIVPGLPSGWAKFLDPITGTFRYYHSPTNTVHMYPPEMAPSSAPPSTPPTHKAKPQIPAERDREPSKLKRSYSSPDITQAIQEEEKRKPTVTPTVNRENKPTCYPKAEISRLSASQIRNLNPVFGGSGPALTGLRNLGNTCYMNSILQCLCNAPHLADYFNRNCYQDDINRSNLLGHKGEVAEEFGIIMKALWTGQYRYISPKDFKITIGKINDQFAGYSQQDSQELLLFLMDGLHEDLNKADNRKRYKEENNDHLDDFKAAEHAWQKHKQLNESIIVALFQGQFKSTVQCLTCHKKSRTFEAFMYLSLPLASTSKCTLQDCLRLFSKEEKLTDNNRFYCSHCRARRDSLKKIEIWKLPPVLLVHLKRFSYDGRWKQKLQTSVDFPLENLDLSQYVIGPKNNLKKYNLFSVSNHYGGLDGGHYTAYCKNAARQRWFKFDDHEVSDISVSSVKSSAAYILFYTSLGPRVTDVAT

AtT-20 = experiment: in vitro; conditions: Ambinter Amb2704313 batch; 24 h

Work on `O=C(NCc1cccc(OCc2ccccn2)c1)c1csc(Br)c1` [ZINC40111866] yielded a viability at 24 h, 25 µM (in vitro [1]) of 98.9%.

Compound `O=C(Nc1ccc(Cl)cc1C(=O)c1ccccc1F)c1ccc(=O)[nH]c1` [ZINC9579366] has a viability at 24 h, 25 µM (in vitro [2]) of 103%.

Work on `O=C(Nc1ccc([N+](=O)[O-])cc1Cl)c1cc(Cl)ccc1O` [Niclosamide] yielded a viability at 24 h, 27 µM (in vitro [3]) of 50%.

In the case of `O=C(Nc1cc(Cl)ccc1Cl)c1cc(I)cc(I)c1O` [ZINC4014105], the viability at 24 h, 25 µM (in vitro [1]) is reported as 95.7%.

For `O=C(Nc1ccc(Cl)cc1)c1cc(I)cc(I)c1O` [ZINC4014104], the IC50 (full length USP8; 0.1 µM Ub-Rho) was 11.9 µM and the viability at 24 h, 25 µM (in vitro [1]) was 58.8%.

For `O=C(Nc1cc(Cl)cc(Cl)c1O)c1c(O)c(Cl)cc(Cl)c1Cl` [Oxyclozanide], the viability at 24 h, 25 µM (in vitro [3]) was 98.1%.

`O=C(Nc1ccc(Cl)cc1Cl)c1cc(I)cc(I)c1O` [ZINC4181894] gave a viability at 24 h, 25 µM (in vitro [1]) of 89.6%.

For `O=C(Nc1ccccc1)c1ccccc1O` [salicylanilide backbone], the IC50 (full length USP8) was over 50 µM.

`O=C(Nc1cc(Cl)cc(Cl)c1)c1cc(I)cc(I)c1O` [ZINC4014253] showed a viability at 24 h, 25 µM (in vitro [1]) of 68%.

Compound `Cc1ccc(NC(=O)Cn2ccccc2=O)c(OCc2ccccc2)c1` [ZINC55784788] has a viability at 24 h, 25 µM (in vitro [2]) of 96%.

In the case of `Cc1ccc(NC(=O)c2cc(I)cc(I)c2O)cc1` [ZINC4014108], the IC50 (full length USP8; 0.1 µM Ub-Rho) is reported as 14.6 µM and the viability at 24 h, 25 µM (in vitro [1]) is reported as 93.5%.

In the case of `Cc1ccc(C(=O)c2cc(NC(=O)c3cc(I)cc(I)c3O)ccc2Cl)cc1` [ZINC72119086], the viability at 24 h, 25 µM (in vitro [1]) is reported as 109%.

`O=C(Nc1ccc(O)cc1)c1cc(I)ccc1O` [ZINC194061705] showed a viability at 24 h, 25 µM (in vitro [2]) of 107%.

`CC(=O)Oc1c(I)cc(I)cc1C(=O)Nc1ccc(Cl)cc1` [Clioxanide] gave a viability at 24 h, 25 µM (in vitro [3]) of 94.2%.

With `O=C(Nc1ccc(Oc2ccc(Cl)cc2)c(Cl)c1)c1cc(I)cc(I)c1O` [Rafoxanide] the “AtT-20 cell viability at 25µM, % of control” value (AtT-20) was 39.3% and the viability at 24 h, 25 µM (in vitro [1]) was 56.2%.

Compound `O=C(CSc1ccccc1F)Nc1cccc(OCc2ccccn2)c1` [ZINC32922917] has a viability at 24 h, 25 µM (in vitro [1]) of 101%.
